In US20220265629A1, “TREATMENT OF SYSTOLIC DYSFUNCTION AND HEART FAILURE WITH REDUCED EJECTION FRACTION WITH THE COMPOUND (R)-4-(1-((3-(DIFLUOROMETHYL)-1-METHYL-1H-PYRAZOL-4-YL)SULFONYL)-1-FLUOROETHYL)-N-(ISOXAZOL-3-YL)PIPERIDINE-1-CARBOXAMIDE” (MyoKardia, Inc., priority 2019, published 2022):

Test system: patients with stable HFrEF
Assay: HFrEF study Part 2 (MAD Cohorts A-D): safety (TEAEs, serum troponin, ECG, Holter)
Assay type: in vivo, human
Experimental: Safety and efficacy assessments were conducted by measuring patients' vital signs and laboratory parameters; performing TTE to measure, e.g., systolic ejection time; performing electrocardiograms (e.g., 12-lead ECG), real-time ECG telemetry (e.g., at least 3-lead), and Holter ECG; and measuring levels of troponin (e.g., troponin I and/or troponin T) and […].
The following safety laboratory parameters were measured: (1) hematology parameters (CBC, including differential count, and platelet count); (2) serum chemistry parameters (e.g., sodium, potassium, chloride, bicarbonate, calcium, magnesium, urea, creatinine, ALP, ALT, AST, total bilirubin, glucose, and CPK); and (3) urinalysis parameters (e.g., pH, protein, glucose, leukocyte esterase, and blood).
Abnormal and/or rising troponin values (as per investigator's judgment and taking into account potential baseline troponin elevation frequently observed in heart failure) led to the patient being clinically evaluated for possible myocardial ischemia. […] The entire clinical context (e.g., signs, symptoms, new ECG changes, new troponin, and CK-MB abnormalities) was evaluated and correlated with any other relevant clinical findings, patient's medical history, and laboratory data to determine the clinical significance of the findings. Troponin results performed on Day 2 of Part 1 (SAD) and Day 10 of Part 2 (MAD) at a local lab were reviewed prior to the patient being discharged the next day.

[1] = serum, MAD cohorts, Total Compound I (n = 22), ULN = 0.014
[2] = serum, MAD cohorts, Total Compound I (n = 30), ULN = 0.03

`Cn1cc(S(=O)(=O)[C@@](C)(F)C2CCN(C(=O)Nc3ccon3)CC2)c(C(F)F)n1` [Compound I, (R)-4-(1-((3-(difluoromethyl)-1-methyl-1H-pyrazol-4-yl)sulfonyl)-1-fluoroethyl)-N-(isoxazol-3-yl)piperidine-1-carboxamide] was tested, and the “Any serious TEAE, number of patients (%)” value (Cohort D 100 mg BID (n = 6)) was 0 n (%), the “TEAE: Abdominal discomfort” value (Cohort D 100 mg BID (n = 6)) was 0 n (%) and the “TEAE: Alanine aminotransferase increased” value (Cohort D 100 mg BID (n = 6)) was 0 n (%). The “TEAE: Anemia” value (Cohort D 100 mg BID (n = 6)) was 0 n (%), the “TEAE: Application site erosion” value (Cohort D 100 mg BID (n = 6)) was 0 n (%) and the “TEAE: Arthralgia” value (Cohort D 100 mg BID (n = 6)) was 0 n (%). The “TEAE: Arthropod bite” value (Cohort D 100 mg BID (n = 6)) was 1 (16.7) n (%), the “TEAE: Back pain” value (Cohort D 100 mg BID (n = 6)) was 0 n (%) and the “TEAE: Blood creatine phosphokinase increased” value (Cohort D 100 mg BID (n = 6)) was 0 n (%). The “TEAE: Blood creatinine increased” value (Cohort D 100 mg BID (n = 6)) was 1 (16.7) n (%), the “TEAE: Cough” value (Cohort D 100 mg BID (n = 6)) was 0 n (%) and the “TEAE: Dermatitis contact” value (Cohort D 100 mg BID (n = 6)) was 0 n (%). The “TEAE: Dry eye” value (Cohort D 100 mg BID (n = 6)) was 0 n (%), the “TEAE: Fatigue” value (Cohort D 100 mg BID (n = 6)) was 0 n (%) and the “TEAE: Fluid overload” value (Cohort D 100 mg BID (n = 6)) was 0 n (%). For the same compound, the “TEAE: Gingival pain” value (Cohort D 100 mg BID (n = 6)) was 1 (16.7) n (%), the “TEAE: Hyperkalemia” value (Cohort D 100 mg BID (n = 6)) was 0 n (%) and the “TEAE: Infusion site erythema” value (Cohort D 100 mg BID (n = 6)) was 0 n (%). For the same compound, the “TEAE: Nasopharyngitis” value (Cohort D 100 mg BID (n = 6)) was 0 n (%), the “TEAE: Rash” value (Cohort D 100 mg BID (n = 6)) was 0 n (%) and the “TEAE: Renal failure” value (Cohort D 100 mg BID (n = 6)) was 0 n (%). The “TEAE: Renal impairment” value (Cohort D 100 mg BID (n = 6)) was 0 n (%), the “TEAE: Testicular pain” value (Cohort D 100 mg BID (n = 6)) was 0 n (%) and the “TEAE: Troponin increased” value (Cohort D 100 mg BID (n = 6)) was 1 (16.7) n (%). For the same compound, the “TEAE: Ventricular tachycardia” value (Cohort D 100 mg BID (n = 6)) was 1 (16.7) n (%), the QTc (MAD cohorts) was “No increase” and the “patients with treatment-emergent adverse events (TEAEs)” value (MAD cohorts, 50-100 mg BID) was 17 (57%). The “patients with transient asymptomatic increase in troponin I or hs-troponin T” value (MAD cohorts, all doses) was 7 (23%), the “Any AE leading to death, number of patients (%)” value (Total Compound I (n = 30)) was 0 n (%) and the “Any TEAE leading to permanent treatment discontinuation, number of patients (%)” value (Total Compound I (n = 30)) was 0 n (%). For the same compound, the “Any TEAE, number of patients (%)” value (Total Compound I (n = 30)) was 17 (56.7) n (%), the “Any serious TEAE, number of patients (%)” value (Total Compound I (n = 30)) was 1 (3.3) n (%) and the “TEAE: Abdominal discomfort” value (Total Compound I (n = 30)) was 1 (3.3) n (%). The “TEAE: Alanine aminotransferase increased” value (Total Compound I (n = 30)) was 2 (6.7) n (%), the “TEAE: Anemia” value (Total Compound I (n = 30)) was 1 (3.3) n (%) and the “TEAE: Application site erosion” value (Total Compound I (n = 30)) was 1 (3.3) n (%). For the same compound, the “TEAE: Arthralgia” value (Total Compound I (n = 30)) was 0 n (%), the “TEAE: Arthropod bite” value (Total Compound I (n = 30)) was 1 (3.3) n (%) and the “TEAE: Back pain” value (Total Compound I (n = 30)) was 0 n (%). For the same compound, the “TEAE: Blood creatine phosphokinase increased” value (Total Compound I (n = 30)) was 1 (3.3) n (%), the “TEAE: Blood creatinine increased” value (Total Compound I (n = 30)) was 1 (3.3) n (%) and the “TEAE: Cough” value (Total Compound I (n = 30)) was 1 (3.3) n (%). For the same compound, the “TEAE: Dermatitis contact” value (Total Compound I (n = 30)) was 2 (6.7) n (%), the “TEAE: Dry eye” value (Total Compound I (n = 30)) was 0 n (%) and the “TEAE: Fatigue” value (Total Compound I (n = 30)) was 2 (6.7) n (%). The “TEAE: Fluid overload” value (Total Compound I (n = 30)) was 1 (3.3) n (%), the “TEAE: Gingival pain” value (Total Compound I (n = 30)) was 1 (3.3) n (%) and the “TEAE: Hyperkalemia” value (Total Compound I (n = 30)) was 1 (3.3) n (%). The “TEAE: Infusion site erythema” value (Total Compound I (n = 30)) was 1 (3.3) n (%), the “TEAE: Nasopharyngitis” value (Total Compound I (n = 30)) was 0 n (%) and the “TEAE: Rash” value (Total Compound I (n = 30)) was 1 (3.3) n (%). The “TEAE: Renal failure” value (Total Compound I (n = 30)) was 0 n (%), the “TEAE: Renal impairment” value (Total Compound I (n = 30)) was 0 n (%) and the “TEAE: Testicular pain” value (Total Compound I (n = 30)) was 0 n (%). For the same compound, the “TEAE: Troponin increased” value (Total Compound I (n = 30)) was 2 (6.7) n (%), the “TEAE: Ventricular tachycardia” value (Total Compound I (n = 30)) was 2 (6.7) n (%) and the “hs-troponin T, max change from baseline” value [1] was “(0.041) ng/mL”. For the same compound, the “hs-troponin T, max peak troponin post dose” value [1] was “(0.052) ng/mL”, the “hs-troponin T, median change from baseline” value [1] was 0.005 ng/mL and the “hs-troponin T, median peak troponin post dose” value [1] was 0.020 ng/mL. For the same compound, the “Troponin I, max change from baseline” value [2] was “(0.87) ng/mL”, the “Troponin I, max peak troponin post dose” value [2] was “(0.88) ng/mL” and the “Troponin I, median change from baseline” value [2] was 0.010 ng/mL. For the same compound, the “Troponin I, median peak troponin post dose” value [2] was 0.025 ng/mL and the safety and tolerability (single dose up to 550 mg and 50 to 100 mg BID for 7 days, HFrEF subjects) was “safe and generally well-tolerated”.
